Species: Rattus norvegicus
Assay: DrugMatrix - Regimen: Daily Repeat
Assay type: toxicity, organism-based, Sprague-Dawley
Parameters: regimen Daily Repeat, gender Male, age 6-8 weeks
Settings: in vivo, po, route oral GAVAGE, […]; for ABSOLUTE BASOPHIL / ABSOLUTE EOSINOPHIL / ABSOLUTE LYMPHOCYTE / ABSOLUTE MONOCYTE / ABSOLUTE SEGMENTED NEUTROPHIL / BASOPHIL / EOSINOPHIL / ERYTHROCYTE COUNT / HEMATOCRIT / HEMOGLOBIN / LEUKOCYTE COUNT / LYMPHOCYTE / MEAN CORPUSCULAR HEMOGLOBIN / MEAN CORPUSCULAR HEMOGLOBIN CONCENTRATION / MEAN CORPUSCULAR VOLUME / MONOCYTE / NEUTROPHIL / NUCLEATED RED BLOOD CELLS / PLATELET COUNT: tissue Blood; for ALANINE AMINOTRANSFERASE / ALBUMIN / ALKALINE PHOSPHATASE / ASPARTATE AMINOTRANSFERASE / BLOOD UREA NITROGEN / CARBON DIOXIDE / CHLORIDE / CHOLESTEROL / CREATINE PHOSPHOKINASE / CREATININE / GLUCOSE / LACTATE DEHYDROGENASE / LIPASE / PHOSPHORUS / POTASSIUM / SODIUM / TOTAL BILIRUBIN / TOTAL PROTEIN / URIC ACID: tissue Plasma
[1] = 10 mg/kg, 72 h, dose level Low, time 3 day
[2] = 10 mg/kg, 120 h, dose level Low, time 5 day
[3] = 50 mg/kg, 72 h, dose level High, time 3 day
[4] = 50 mg/kg, 120 h, dose level High, time 5 day

`CC(C)CC(N(C)C)C1(c2ccc(Cl)cc2)CCC1` (configuration not stated) [SIBUTRAMINE] was tested, and the “ABSOLUTE BASOPHIL” value [1] was 0 CELLS/uL, the “ABSOLUTE EOSINOPHIL” value [1] was 0 CELLS/uL and the “ABSOLUTE LYMPHOCYTE” value [1] was 16618.67 CELLS/uL. For the same compound, the “ABSOLUTE MONOCYTE” value [1] was 131.33 CELLS/uL, the “ABSOLUTE SEGMENTED NEUTROPHIL” value [1] was 1483.33 CELLS/uL and the BASOPHIL [1] was 0%. For the same compound, the EOSINOPHIL [1] was 0%, the “ERYTHROCYTE COUNT” value [1] was 5.37 x10E6/uL and the HEMATOCRIT [1] was 34.23%. The HEMOGLOBIN [1] was 13.53 G/DL, the “LEUKOCYTE COUNT” value [1] was 18.23 x10E3/uL and the LYMPHOCYTE [1] was 91%. The “MEAN CORPUSCULAR HEMOGLOBIN” value [1] was 25.17 pg, the “MEAN CORPUSCULAR HEMOGLOBIN CONCENTRATION” value [1] was 39.53 G/DL and the “MEAN CORPUSCULAR VOLUME” value [1] was 63.67 fL. For the same compound, the MONOCYTE [1] was 0.67%, the NEUTROPHIL [1] was 8.33% and the “NUCLEATED RED BLOOD CELLS” value [1] was 0.33 /100WBC. The “PLATELET COUNT” value [1] was 1187.67 x10E3/uL, the “ALANINE AMINOTRANSFERASE” value [1] was 61.33 u/L and the ALBUMIN [1] was 3.93 G/DL. For the same compound, the “ALKALINE PHOSPHATASE” value [1] was 368 u/L, the “ASPARTATE AMINOTRANSFERASE” value [1] was 88.33 u/L and the “BLOOD UREA NITROGEN” value [1] was 12 mg/dL. For the same compound, the “CARBON DIOXIDE” value [1] was 33 mmol/L, the CHLORIDE [1] was 100.33 MEQ/L and the CHOLESTEROL [1] was 70 mg/dL. For the same compound, the “CREATINE PHOSPHOKINASE” value [1] was 531.67 u/L, the CREATININE [1] was 0.1 mg/dL and the GLUCOSE [1] was 158.33 mg/dL. The “LACTATE DEHYDROGENASE” value [1] was 253.33 u/L, the LIPASE [1] was 10.33 u/L and the PHOSPHORUS [1] was 11.93 mg/dL. The POTASSIUM [1] was 6.44 MEQ/L, the SODIUM [1] was 140.57 MEQ/L and the “TOTAL BILIRUBIN” value [1] was 0.13 mg/dL. For the same compound, the “TOTAL PROTEIN” value [1] was 5.37 G/DL, the “URIC ACID” value [1] was 1.27 mg/dL and the “ABSOLUTE BASOPHIL” value [2] was 0 CELLS/uL. For the same compound, the “ABSOLUTE EOSINOPHIL” value [2] was 0 CELLS/uL, the “ABSOLUTE LYMPHOCYTE” value [2] was 12939.67 CELLS/uL and the “ABSOLUTE MONOCYTE” value [2] was 411.33 CELLS/uL. For the same compound, the “ABSOLUTE SEGMENTED NEUTROPHIL” value [2] was 1515.67 CELLS/uL, the BASOPHIL [2] was 0% and the EOSINOPHIL [2] was 0%. For the same compound, the “ERYTHROCYTE COUNT” value [2] was 5.44 x10E6/uL, the HEMATOCRIT [2] was 33.73% and the HEMOGLOBIN [2] was 13.47 G/DL. For the same compound, the “LEUKOCYTE COUNT” value [2] was 14.87 x10E3/uL, the LYMPHOCYTE [2] was 86.67% and the “MEAN CORPUSCULAR HEMOGLOBIN” value [2] was 24.83 pg. The “MEAN CORPUSCULAR HEMOGLOBIN CONCENTRATION” value [2] was 39.93 G/DL, the “MEAN CORPUSCULAR VOLUME” value [2] was 62.2 fL and the MONOCYTE [2] was 2.67%. For the same compound, the NEUTROPHIL [2] was 10.67%, the “NUCLEATED RED BLOOD CELLS” value [2] was 0 /100WBC and the “PLATELET COUNT” value [2] was 1072.33 x10E3/uL. The “ALANINE AMINOTRANSFERASE” value [2] was 55.67 u/L, the ALBUMIN [2] was 4.07 G/DL and the “ALKALINE PHOSPHATASE” value [2] was 363.67 u/L. The “ASPARTATE AMINOTRANSFERASE” value [2] was 79.33 u/L, the “BLOOD UREA NITROGEN” value [2] was 14 mg/dL and the “CARBON DIOXIDE” value [2] was 34.33 mmol/L. For the same compound, the CHLORIDE [2] was 101.33 MEQ/L, the CHOLESTEROL [2] was 72 mg/dL and the “CREATINE PHOSPHOKINASE” value [2] was 211.33 u/L. For the same compound, the CREATININE [2] was 0.23 mg/dL, the GLUCOSE [2] was 148.67 mg/dL and the “LACTATE DEHYDROGENASE” value [2] was 269 u/L. It also gave an LIPASE [2] of 11 u/L, a PHOSPHORUS [2] of 10.8 mg/dL and a POTASSIUM [2] of 6.14 MEQ/L. The SODIUM [2] was 143.2 MEQ/L, the “TOTAL BILIRUBIN” value [2] was 0.17 mg/dL and the “TOTAL PROTEIN” value [2] was 5.57 G/DL. For the same compound, the “URIC ACID” value [2] was 1.07 mg/dL, the “ABSOLUTE BASOPHIL” value [3] was 0 CELLS/uL and the “ABSOLUTE EOSINOPHIL” value [3] was 0 CELLS/uL. The “ABSOLUTE LYMPHOCYTE” value [3] was 12941.33 CELLS/uL, the “ABSOLUTE MONOCYTE” value [3] was 144.33 CELLS/uL and the “ABSOLUTE SEGMENTED NEUTROPHIL” value [3] was 2147.67 CELLS/uL. For the same compound, the BASOPHIL [3] was 0%, the EOSINOPHIL [3] was 0% and the “ERYTHROCYTE COUNT” value [3] was 5.65 x10E6/uL. For the same compound, the HEMATOCRIT [3] was 35.8%, the HEMOGLOBIN [3] was 14.6 G/DL and the “LEUKOCYTE COUNT” value [3] was 15.23 x10E3/uL. For the same compound, the LYMPHOCYTE [3] was 85.33%, the “MEAN CORPUSCULAR HEMOGLOBIN” value [3] was 25.83 pg and the “MEAN CORPUSCULAR HEMOGLOBIN CONCENTRATION” value [3] was 40.8 G/DL. For the same compound, the “MEAN CORPUSCULAR VOLUME” value [3] was 63.37 fL, the MONOCYTE [3] was 1% and the NEUTROPHIL [3] was 13.67%. The “NUCLEATED RED BLOOD CELLS” value [3] was 0 /100WBC, the “PLATELET COUNT” value [3] was 1122.33 x10E3/uL and the “ALANINE AMINOTRANSFERASE” value [3] was 51.33 u/L. For the same compound, the ALBUMIN [3] was 3.67 G/DL, the “ALKALINE PHOSPHATASE” value [3] was 417 u/L and the “ASPARTATE AMINOTRANSFERASE” value [3] was 96 u/L. For the same compound, the “BLOOD UREA NITROGEN” value [3] was 13 mg/dL, the “CARBON DIOXIDE” value [3] was 31.67 mmol/L and the CHLORIDE [3] was 102.33 MEQ/L. For the same compound, the CHOLESTEROL [3] was 68.67 mg/dL, the “CREATINE PHOSPHOKINASE” value [3] was 259.67 u/L and the CREATININE [3] was 0.14 mg/dL. For the same compound, the GLUCOSE [3] was 156.33 mg/dL, the “LACTATE DEHYDROGENASE” value [3] was 181 u/L and the LIPASE [3] was 10 u/L. It also gave a PHOSPHORUS [3] of 11.27 mg/dL, a POTASSIUM [3] of 5.99 MEQ/L and an SODIUM [3] of 144.97 MEQ/L. For the same compound, the “TOTAL BILIRUBIN” value [3] was 0.17 mg/dL, the “TOTAL PROTEIN” value [3] was 5.37 G/DL and the “URIC ACID” value [3] was 1.3 mg/dL. For the same compound, the “ABSOLUTE BASOPHIL” value [4] was 0 CELLS/uL, the “ABSOLUTE EOSINOPHIL” value [4] was 0 CELLS/uL and the “ABSOLUTE LYMPHOCYTE” value [4] was 16000.33 CELLS/uL. For the same compound, the “ABSOLUTE MONOCYTE” value [4] was 0 CELLS/uL, the “ABSOLUTE SEGMENTED NEUTROPHIL” value [4] was 833 CELLS/uL and the BASOPHIL [4] was 0%. For the same compound, the EOSINOPHIL [4] was 0%, the “ERYTHROCYTE COUNT” value [4] was 5.75 x10E6/uL and the HEMATOCRIT [4] was 36.37%. The HEMOGLOBIN [4] was 14.3 G/DL, the “LEUKOCYTE COUNT” value [4] was 16.83 x10E3/uL and the LYMPHOCYTE [4] was 95%. The “MEAN CORPUSCULAR HEMOGLOBIN” value [4] was 24.9 pg, the “MEAN CORPUSCULAR HEMOGLOBIN CONCENTRATION” value [4] was 39.33 G/DL and the “MEAN CORPUSCULAR VOLUME” value [4] was 63.37 fL. The MONOCYTE [4] was 0%, the NEUTROPHIL [4] was 5% and the “NUCLEATED RED BLOOD CELLS” value [4] was 0 /100WBC. For the same compound, the “PLATELET COUNT” value [4] was 1265 x10E3/uL, the “ALANINE AMINOTRANSFERASE” value [4] was 57.33 u/L and the ALBUMIN [4] was 4.07 G/DL. The “ALKALINE PHOSPHATASE” value [4] was 391.67 u/L, the “ASPARTATE AMINOTRANSFERASE” value [4] was 95.67 u/L and the “BLOOD UREA NITROGEN” value [4] was 14.67 mg/dL. The “CARBON DIOXIDE” value [4] was 30 mmol/L, the CHLORIDE [4] was 102 MEQ/L and the CHOLESTEROL [4] was 56 mg/dL. The “CREATINE PHOSPHOKINASE” value [4] was 585 u/L, the CREATININE [4] was 0.11 mg/dL and the GLUCOSE [4] was 164 mg/dL. The “LACTATE DEHYDROGENASE” value [4] was 175.33 u/L, the LIPASE [4] was 9.67 u/L and the PHOSPHORUS [4] was 12.43 mg/dL. For the same compound, the POTASSIUM [4] was 6.27 MEQ/L, the SODIUM [4] was 142.13 MEQ/L and the “TOTAL BILIRUBIN” value [4] was 0.1 mg/dL. The “TOTAL PROTEIN” value [4] was 5.6 G/DL and the “URIC ACID” value [4] was 1.73 mg/dL.
